Reference: patent US9359298B2, “Cajanine structure analogous compound, preparation method and use” (INSTITUTE OF MEDICINAL BIOTECHNOLOGY, CHINESE ACADEMY OF …, priority 2011, dated 2016)
≈ marks a conversion by molar mass, not a printed value.

Columns and labels:
Assay type in all cases: cell-based
[1] = test system: Influenza A virus (hanfang359/95); experiment: Determination of anti-influenza virus activity (CPE in MDCK cells); conditions: for IC50: Influenza A virus, MDCK, 36 h; for anti-influenza virus activities compared with the lead compound cajanine: statement in words
[2] = test system: Coxsackie virus B6; experiment: Coxsackie virus activity assay (CPE in Vero cells); conditions: Vero, read-out: COX-B6 IC50, Vero cells, about 100TCID50, CPE, Reed-Muench
[3] = test system: HCV; experiment: Anti-hepatitis C virus (HCV) activity assay (HCV RNA in Huh7.5 cells); conditions: for EC50: Hepatitis C virus, Huh7.5, 72 h, Huh7.5 cells, 72 h, HCV RNA by RT-PCR, Reed-Muench, read-out: HCV EC50; for anti-HCV viral activity: statement in words
Description: Inoculate Huh7.5 cells into 96-well plates to a density of 3×10^4 cells/cm^2, culture for 24h, infect the cells with 45 IU/cell HCV supernatant, meanwhile, add drug solutions or solvent control for treatment.

[4] = test system: HIV-1 III B virus; experiment: Anti-HIV activity assay (P24 antigen in MT-4 cells); conditions: for IC50: Human immunodeficiency virus 1, MT4, 96 h, MT-4 cells, HIV-1 III B 100TCID50, 96 h, P24 antigen, read-out: HIV IC50; for anti-HIV viral activity: statement in words
[5] = test system: PC12 cells; experiment: Neuroprotective activity assay, serum-deprived injury to PC12 cells (MTT); conditions: for viability at 10 µM: Rattus norvegicus, PC-12, 48 h, 10 μM test compound, 48 h, Control 100.0 ± 9.2, Model 69.3 ± 4.1, read-out: serum-deprived (surviving PC12 cells, MTT 570 nm); for protective effect on serum-deprived injury to PC12 cells: statement in words
How it was run: (§1)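 Survival measured as MTT absorbance at 570 nm after 4 h dye uptake. Compounds (10 μM) were co-applied for 48 h to PC12 cells deprived of serum or exposed to 4 μM rotenone, following 24 h seeding on poly-lysine.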

[6] = test system: PC12 cells; experiment: Neuroprotective activity assay, rotenone injury to PC12 cells (MTT); conditions: for viability at 10 µM: Rattus norvegicus, PC-12, 48 h, 10 μM test compound, 4 μM rotenone, 48 h, Control 100.0 ± 8.9, Model 73.2 ± 7.8, read-out: rotenone (surviving PC12 cells, MTT 570 nm); for protective effect on rotenone injury to PC12 cells: statement in words
How it was run: as §1

Row | Structure (SMILES) | IC50 [1] [µg/mL] | IC50 [2] [µg/mL] | EC50 [3] [µg/mL] | IC50 [4] [µg/mL] | viability at 10 µM [5] [%] | viability at 10 µM [6] [%] | anti-influenza virus activities compared with the lead compound cajanine [1] | anti-HCV viral activity [3] | anti-HIV viral activity [4] | protective effect on serum-deprived injury to PC12 cells [5] | protective effect on rotenone injury to PC12 cells [6]
1 | COc1cc(/C=C/c2cc(O)c(O)c(O)c2)cc(OC)c1 [Compound 21j, 1,3-dimethoxy-5-[(E)-3,4,5-trihydroxystyryl]benzene] | 0.98 (≈ 3.4 µM) | 1.34 (≈ 4.65 µM) | 1.33 (≈ 4.61 µM) | 1.04 (≈ 3.61 µM) | 69.3 ± 2.5 | 75.6 ± 4.6 |  |  |  |  | 
2 | Oc1cc(O)cc(/C=C/c2cc(O)c(O)c(O)c2)c1 [Compound 21k, 1,3-dihydroxy-5-[(E)-3,4,5-trihydroxystyryl]benzene] | 0.54 (≈ 2.07 µM) | 0.78 (≈ 3 µM) | 8.36 (≈ 32.1 µM) | 10.3 (≈ 39.7 µM) | 74.5 ± 5.8 | 71.3 ± 8 | significantly stronger than the lead compound cajanine |  |  |  | 
3 | COc1cc(/C=C/c2ccccc2)c(C(=O)n2ccnc2)c(O)c1CC=C(C)C [Compound 22, (E)-(2-hydroxy-3-isopentenyl-4-methoxy-6-styrylphenyl)(1H-imidazol-1-yl)ketone] | 1.25 (≈ 3.22 µM) | 2.37 (≈ 6.1 µM) | 0.68 (≈ 1.75 µM) | 0.35 (≈ 0.901 µM) | 87.8 ± 2.9 | 85.6 ± 1.6 |  |  |  |  | 
4 | COc1cc(/C=C/c2ccccc2)c(C(=O)NC(N)=O)c(O)c1CC=C(C)C [Compound 23a, N-aminoformyl-2-hydroxy-3-isopentenyl-4-methoxy-6-[(E)-styryl]benzamide] | 0.09 (≈ 0.237 µM) | 0.32 (≈ 0.841 µM) | 0.66 (≈ 1.73 µM) | 0.74 (≈ 1.95 µM) | 87.9 ± 5.8 | 85.6 ± 8.7 | significantly stronger than the lead compound cajanine | stronger anti-HIV, HCV viral activities | stronger anti-HIV, HCV viral activities |  | 
5 | COc1cc(/C=C/c2ccccc2)c(C(=O)NC(=N)N)c(O)c1CC=C(C)C [Compound 23b, N-amidino-2-hydroxy-3-isopentenyl-4-methoxy-6-[(E)-styryl]benzamide] | 0.13 (≈ 0.343 µM) | 0.24 (≈ 0.632 µM) | 0.53 (≈ 1.4 µM) | 3.9 (≈ 10.3 µM) | 79.8 ± 4.6 | 81.3 ± 5 | significantly stronger than the lead compound cajanine | stronger anti-HIV, HCV viral activities | stronger anti-HIV, HCV viral activities |  | 
6 | COc1cc(/C=C/c2ccccc2)c(C(=O)O)c(OC(=O)CN)c1CC=C(C)C [Compound 24b, 2-Aminoacetoxy-3-isopentenyl-4-methoxy-6-[(E)-styryl]benzoic acid] | 4.25 (≈ 10.7 µM) | 1.24 (≈ 3.14 µM) | 1.68 (≈ 4.25 µM) | 2.01 (≈ 5.08 µM) | 89.7 ± 5.6 | 88.3 ± 5.2 |  |  |  |  | 
7 | COc1cc(/C=C/c2ccccc2)c(C(=O)O)c(OC(C)=O)c1CC=C(C)C [Compound 24h] | 0.45 (≈ 1.18 µM) | 1.21 (≈ 3.18 µM) | 2.39 (≈ 6.28 µM) | 1.33 (≈ 3.5 µM) | 88.9 ± 5.4 | 87.8 ± 6.3 |  |  |  |  | 
8 | COc1cc(/C=C/c2ccccc2)c(C(=O)O)c(OC(=O)c2cccnc2)c1CC=C(C)C [Compound 24k, 2-(pyridyl-3-formylox)-3-isopentenyl-4-methoxy-6-[(E)-styryl]benzoic acid] | 3.55 (≈ 8 µM) | 1.36 (≈ 3.07 µM) | 4.87 (≈ 11 µM) | 2.17 (≈ 4.89 µM) | 89.6 ± 2.3 | 85.6 ± 2.1 |  |  |  | the strongest activities | the strongest activities
9 | COc1cc(/C=C/c2ccccc2)c(C(=O)O)c(OC(=O)CN(C)C)c1CC=C(C)C [Compound 24n, 2-(N,N-dimethylacetyloxy)-3-isopentenyl-4-methoxy-6-[(E)-styryl]benzoic acid] | 7.21 (≈ 17 µM) | 1.35 (≈ 3.19 µM) | 1.97 (≈ 4.65 µM) | 3.12 (≈ 7.37 µM) | 75.8 ± 3.2 | 79.8 ± 5.6 |  |  |  |  | 
10 | COc1cc(/C=C/c2ccccc2)c(C(=O)O)c(OC(=O)c2cnc[nH]2)c1CC=C(C)C [Compound 24q] | 1.98 (≈ 4.58 µM) | 1.35 (≈ 3.12 µM) | 1.54 (≈ 3.56 µM) | 2.85 (≈ 6.59 µM) | 92.3 ± 1.2 | 90.5 ± 5.6 |  |  |  | the strongest activities | the strongest activities
